Source: patent publication US5262417A, “Antibacterial quinolone compounds” (The Upjohn Company, priority 1991, dated 1993)
Read-outs that look alike come from different tables or passages of the source.

Tests used:
Experiment in all cases: Minimum inhibitory concentration (MIC) by agar dilution
Assay type in all cases: cell-based
Enterobacter cloacae = system: Enterobacter cloacae
Description: (§1) Briefly, MIC values are determined in unsupplemented Mueller Hinton Agar (MHA). The compounds tested are diluted serially into molten MHA at 47° C. The agar is poured into petri dishes and allowed to harden. The various bacteria used for testing are grown overnight on MHA at 35° C. and transferred to Trypticase soy broth (TSB) until a turbidity of 0.5 McFarland standard is obtained. The bacteria are diluted one to 20 in TSB and inoculated on the plates (1 μl using a Steers replicator).
as §1, with “Compounds of this invention can also be tested for in vitro antimicrobial activity using standard testing procedures such as the determination of minimum inhibitory concentration (MIC) by agar dilution as described in "Methods for Dilution Antimicrobial Susceptibility Tests for Bacteria That Grow Aerobically" (MFT) published Jan. […] Briefly,” for “Briefly,”, “(1μl” for “(1 μl”

Staphylococcus aureus = conditions: Staphylococcus aureus
Description: as §1, with “The antibacterial activity of the compounds of Formula IC was determined by using standard testing procedures such as the determination of minimum inhibitory concentration (MIC) by agar dilution as described in "Methods for Dilution Antimicrobial Susceptibility Tests for Bacteria That Grow Aerobically" (MFT) published January 1983 by the National Committee for Clinical Laboratory Standards, 771 East Lancaster Avenue, Villanova, Pa. 19084, USA. Briefly,” for “Briefly,”
(§2) Compounds of this invention can also be tested for in vitro antimicrobial activity using standard testing procedures such as the determination of minimum inhibitory concentration (MIC) by agar dilution as described in "Methods for Dilution Antimicrobial Susceptibility Tests for Bacteria That Grow Aerobically" (MFT) published Jan. 1983 by the National Committee for Clinical Laboratory Standards, 771 East Lancaster Avenue, Villanova, Penna. 19084, USA. Briefly, MIC values are determined in unsupplemented Mueller Hinton Agar (MHA). The compounds tested are diluted serially into molten MHA at 47° C. The agar is poured into petri dishes and allowed to harden. The various bacteria used for testing are grown overnight on MHA at 35° C. and transferred to Trypticase soy broth (TSB) until a turbidity of 0.5 McFarland standard is obtained. The bacteria are diluted one to 20 in TSB and inoculated on the plates (1μl using a Steers replicator). […] The MIC test results of selected of Formula B compounds of this invention are found in Tables B2-B9.

Pseudomonas aeruginosa = conditions: Pseudomonas aeruginosa
Description: (§3) The antibacterial activity of the compounds of Formula IC was determined by using standard testing procedures such as the determination of minimum inhibitory concentration (MIC) by agar dilution as described in "Methods for Dilution Antimicrobial Susceptibility Tests for Bacteria That Grow Aerobically" (MFT) published January 1983 by the National Committee for Clinical Laboratory Standards, 771 East Lancaster Avenue, Villanova, Pa. 19084, USA. Briefly, MIC values are determined in unsupplemented Mueller Hinton Agar (MHA). The compounds tested are diluted serially into molten MHA at 47° C. The agar is poured into petri dishes and allowed to harden. The various bacteria used for testing are grown overnight on MHA at 35° C. and transferred to Trypticase soy broth (TSB) until a turbidity of 0.5 McFarland standard is obtained. The bacteria are diluted one to 20 in TSB and inoculated on the plates (1 μl using a Steers replicator).
as §2

Streptococcus pneumoniae = conditions: Streptococcus pneumoniae
Description: as §3, §2

Citerobacter freundii = system: Citerobacter freundii
Description: as §3, §2

[1] = system: Acinetobacter calcoaceticus; conditions: Acinetobacter calcoaceticus
Description: as §3, §2

[2] = system: Staphylococcus epidermidis; conditions: 20 h
Description: as §3, §2

Escherichia coli = conditions: Escherichia coli
Description: as §3, §2

Proteus penneri = conditions: Proteus penneri
Description: as §3, §2

Klebsiella pneumoniae = system: Klebsiella pneumoniae
Description: as §3, §2

Streptococcus faecalis = conditions: Enterococcus faecalis
Description: as §3, §2

Serratia marcescens = conditions: 20 h
Description: as §3, §2

Streptococcus pyogenes = conditions: Streptococcus pyogenes
Description: as §3, §2

[3] = 20 h, read-out: MINIMUM INHIBITORY CONCENTRATION
[4] = 20 h, read-out: MINIMUM INHIBITORY CONCENTRATION, Cult No. 6685, MHA
[5] = 20 h, read-out: MINIMUM INHIBITORY CONCENTRATION, Cult No. 9213, MHA
[6] = 20 h, read-out: MINIMUM INHIBITORY CONCENTRATION, Cult No. 9218, MHA
[7] = 20 h, read-out: MINIMUM INHIBITORY CONCENTRATION, Cult No. 9271, MHA
[8] = 20 h, read-out: MINIMUM INHIBITORY CONCENTRATION, Cult No. 6676, MHA
[9] = 20 h, read-out: MINIMUM INHIBITORY CONCENTRATION, Cult No. 9191, MHA
[10] = 20 h, read-out: MINIMUM INHIBITORY CONCENTRATION, Cult No. 12120, MHA
[11] = 20 h, read-out: MINIMUM INHIBITORY CONCENTRATION, Cult No. 41, MHA
[12] = 20 h, read-out: MINIMUM INHIBITORY CONCENTRATION, Cult No. 12170, MHA
[13] = read-out: MINIMUM INHIBITORY CONCENTRATION
[14] = 20 h, read-out: MINIMUM INHIBITORY CONCENTRATION, Cult No. 6674, MHA
[15] = 20 h, read-out: MINIMUM INHIBITORY CONCENTRATION, Cult No. 9451, MHA
[16] = 20 h, read-out: MINIMUM INHIBITORY CONCENTRATION, Cult No. 9855, MHA
[17] = 20 h, read-out: MINIMUM INHIBITORY CONCENTRATION, Cult No. 9952, MHA
[18] = 20 h, read-out: MINIMUM INHIBITORY CONCENTRATION, Cult No. 9679, MHA
[19] = 20 h, read-out: MINIMUM INHIBITORY CONCENTRATION, Cult No. 152, MHA

Measured: MIC

O=C(O)c1cn(C23CC(C2)C3)c2cc(N3CCNCC3)c(F)cc2c1=O [No. 2, 1-(bicyclo[1.1.1]pent-1-yl)-1,4-dihydro-6-fluoro-4-oxo-7-(1-piperazinyl)-3-quinolinecarboxylic acid]
0.06 µg/mL: Citerobacter freundii; [3]
0.125 µg/mL: Enterobacter cloacae; [3] | Escherichia coli; [14] | Escherichia coli; [15] | Escherichia coli; [16] | Escherichia coli; [17]
0.5 µg/mL: Staphylococcus aureus; [4] | [1]; [12] | [2]; [13] | Proteus penneri; [18] | Serratia marcescens; [13]
2 µg/mL: Pseudomonas aeruginosa; [9] | Streptococcus pyogenes; [19]
4 µg/mL: Pseudomonas aeruginosa; [8] | Streptococcus pneumoniae; [11] | Streptococcus faecalis; [3]
0.25 µg/mL: Klebsiella pneumoniae; [3]
1 µg/mL: Staphylococcus aureus; [5] | Staphylococcus aureus; [6] | Staphylococcus aureus; [7] | Pseudomonas aeruginosa; [10]

NC1CCN(c2nc3c(cc2F)c(=O)c(C(=O)O)cn3C23CC(C2)C3)C1 (racemic) [No. 36, 7-(3-amino-1-pyrrolidinyl)-1-(bicyclo[1.1.1]pent-1-yl)-1,4-dihydro-6-fluoro-4-oxo-1,8-naphthyridine-3-carboxylic acid]
0.125 µg/mL: Staphylococcus aureus; [4] | Staphylococcus aureus; [5] | Staphylococcus aureus; [6] | Staphylococcus aureus; [7] | [1]; [12] | Serratia marcescens; [13]
0.03 µg/mL: Enterobacter cloacae; [3] | Citerobacter freundii; [3] | Escherichia coli; [14] | Escherichia coli; [15] | Escherichia coli; [17]
0.06 µg/mL: [2]; [13] | Escherichia coli; [16] | Klebsiella pneumoniae; [3]
0.5 µg/mL: Pseudomonas aeruginosa; [9] | Streptococcus pneumoniae; [11] | Streptococcus faecalis; [3]
1 µg/mL: Pseudomonas aeruginosa; [8]
0.25 µg/mL: Pseudomonas aeruginosa; [10] | Proteus penneri; [18] | Streptococcus pyogenes; [19]

C#CCn1cc(C(=O)O)c(=O)c2cc(F)c(N3CCC(N)C3)c(F)c21 (racemic) [D]
2 µg/mL: [2]; S. epidermidis 30031, Table CI, read-out: Minimum Inhibitory Concentration | Escherichia coli; UC9855, 20 h, E. coli UC 9855, Table CI, read-out: Minimum Inhibitory Concentration
32 µg/mL: Streptococcus pneumoniae; UC41, 20 h, S. pneumoniae UC 41, Table CI, read-out: Minimum Inhibitory Concentration | Streptococcus faecalis; UC9217, 20 h, S. faecalis UC 9217, Table CI, read-out: Minimum Inhibitory Concentration
0.5 µg/mL: Citerobacter freundii; Citrobacter freundii, UC3507, 20 h, C. freundii UC 3507, Table CI, read-out: Minimum Inhibitory Concentration | Escherichia coli; UC9451, 20 h, E. coli UC 9451, Table CI, read-out: Minimum Inhibitory Concentration | Escherichia coli; UC9952, 20 h, E. coli UC 9952, Table CI, read-out: Minimum Inhibitory Concentration | Proteus penneri; UC9679, 20 h, P. penneri UC 9679, Table CI, read-out: Minimum Inhibitory Concentration
0.06 µg/mL: Serratia marcescens; S. marcescens, UC number not given, Table CI, read-out: Minimum Inhibitory Concentration
4 µg/mL: Staphylococcus aureus; UC6685, 20 h, S. aureus UC 6685, Table CI, read-out: Minimum Inhibitory Concentration | Pseudomonas aeruginosa; UC12120, 20 h, Ps. aeruginosa UC 12120, Table CI, read-out: Minimum Inhibitory Concentration | [1]; UC12170, 20 h, A. calcoaceticus UC 12170, Table CI, read-out: Minimum Inhibitory Concentration
8 µg/mL: Staphylococcus aureus; UC9213, 20 h, S. aureus UC 9213, Table CI, read-out: Minimum Inhibitory Concentration | Staphylococcus aureus; UC9218, 20 h, S. aureus UC 9218, Table CI, read-out: Minimum Inhibitory Concentration | Staphylococcus aureus; UC9271, 20 h, S. aureus UC 9271, Table CI, read-out: Minimum Inhibitory Concentration | Pseudomonas aeruginosa; UC6676, 20 h, Ps. aeruginosa UC 6676, Table CI, read-out: Minimum Inhibitory Concentration | Pseudomonas aeruginosa; UC9191, 20 h, Ps. aeruginosa UC 9191, Table CI, read-out: Minimum Inhibitory Concentration
1 µg/mL: Enterobacter cloacae; UC9382, 20 h, E. cloacae UC 9382, Table CI, read-out: Minimum Inhibitory Concentration | Escherichia coli; UC6674, 20 h, E. coli UC 6674, Table CI, read-out: Minimum Inhibitory Concentration | Klebsiella pneumoniae; UC12081, 20 h, K. pneumoniae UC 12081, Table CI, read-out: Minimum Inhibitory Concentration
16 µg/mL: Streptococcus pyogenes; UC152, 20 h, S. pyogenes UC 152, Table CI, read-out: Minimum Inhibitory Concentration
